According to BigSolDB 2.1:

CC1CCC(=O)C1=O (stereo unspecified)
solubility (mole fraction)
Details | 278.15 K | 283.15 K | 288.15 K | 293.15 K | 298.15 K | 303.15 K | 308.15 K | 313.15 K
in 1,2-dichloroethane | 0.0554 | 0.0773 | 0.0992 | 0.122 | 0.153 | 0.184 | 0.215 | 0.254
in acetone | 0.0937 | 0.105 | 0.133 | 0.152 | 0.182 | 0.221 | 0.255 | 0.298
in acetonitrile | 0.0331 | 0.0519 | 0.0657 | 0.0823 | 0.11 | 0.139 | 0.17 | 0.204
in dichloromethane | 0.103 | 0.123 | 0.145 | 0.18 | 0.217 | 0.251 | 0.292 | 0.333
in ethanol | 0.044 | 0.0503 | 0.0645 | 0.0752 | 0.0939 | 0.111 | 0.145 | 0.187
in ethyl acetate | 0.0482 | 0.0574 | 0.0698 | 0.094 | 0.131 | 0.156 | 0.203 | 0.251
in ethyl formate | 0.0504 | 0.0603 | 0.0707 | 0.0943 | 0.12 | 0.147 | 0.176 | 0.239
in isobutanol | 0.0394 | 0.0467 | 0.052 | 0.0701 | 0.0866 | 0.111 | 0.153 | 0.211
in isopropanol | 0.0198 | 0.0388 | 0.0599 | 0.0768 | 0.101 | 0.13 | 0.165 | 0.207
in methanol | 0.0488 | 0.0629 | 0.0787 | 0.0966 | 0.119 | 0.147 | 0.177 | 0.208
in n-butanol | 0.0353 | 0.0444 | 0.0552 | 0.0693 | 0.0858 | 0.105 | 0.133 | 0.18
in n-propanol | 0.0389 | 0.0474 | 0.0581 | 0.0731 | 0.0903 | 0.113 | 0.141 | 0.202
